What was measured:
[1] = target: T1, CYP3A7 (Homo sapiens, UniProt P24462); test: Michaelis-Menten kinetics (fluorescence); type: biochemical; conditions: read-out: DBOMF
T1 construct: recombinant human CYP3A7 Supersomes (Sf9 insect cell microsomes); with human NADPH-cytochrome P450 reductase and human cytochrome b5 (co-expressed)

[2] = target: T1, CYP3A7; test: fluorescent DBF O-debenzylation inhibition assay with recombinant CYP3A7; type: biochemical
[3] = target: T1, CYP3A7; test: fluorescent DBF inhibition assay at […]; type: biochemical; conditions: read-out: % inhibition at 20 μM
[4] = substrate: O=C(OCc1ccccc1)c1ccccc1-c1c2ccc(=O)cc-2oc2cc(OCc3ccccc3)ccc12; test: Michaelis-Menten kinetics (fluorescence); metabolites by LC-MS/MS; type: biochemical, Homo sapiens; conditions: NADPH likely binds in the CYP3A7 active site mirroring native substrates
[5] = substrate: c1ccc(COc2ccc3cccnc3c2)cc1; test: Michaelis-Menten kinetics (fluorescence); type: biochemical, Homo sapiens; conditions: NADPH

With `O=C(OCOCc1ccccc1)c1ccccc1-c1c2ccc(=O)cc-2oc2cc(OCOCc3ccccc3)ccc12` [DBOMF, dibenzyloxymethylfluorescein] the Km [1] was 1.62 µM.

Work on `C[C@]12CC[C@H](OS(=O)(=O)O)CC1=CC[C@@H]1[C@@H]2CC[C@]2(C)C(=O)CC[C@@H]12` [DHEA-S] yielded an IC50 [2] of 5.31 µM.

With `CC(C)CN(C[C@@H](O)[C@H](Cc1ccccc1)NC(=O)O[C@H]1CO[C@H]2OCC[C@H]21)S(=O)(=O)c1ccc(N)cc1` [Darunavir] the inhibition at 20 µM [3] was greater than 75%.

In the case of `Cc1c(O)cccc1C(=O)N[C@@H](CSc1ccccc1)[C@H](O)CN1C[C@H]2CCCC[C@H]2C[C@H]1C(=O)NC(C)(C)C` [Nelfinavir], the inhibition at 20 µM [3] is reported as greater than 75%.

B1: CYP3A7 (Homo sapiens) (protein)
chain: MDLIPNLAVETWLLLAVSLILLYLYGTRTHGLFKKLGIPGPTPLPFLGNALSFRKGYWTFDMECYKKYRKVWGIYDCQQPMLAITDPDMIKTVLVKECYSVFTNRRPFGPVGFMKNAISIAEDEEWKRIRSLLSPTFTSGKLKEMVPIIAQYGDVLVRNLRREAETGKPVTLKHVFGAYSMDVITSTSFGVSIDSLNNPQDPFVENTKKLLRFNPLDPFVLSIKVFPFLTPILEALNITVFPRKVISFLTKSVKQIKEGRLKETQKHRVDFLQLMIDSQNSKDSETHKALSDLELMAQSIIFIFAGYETTSSVLSFIIYELATHPDVQQKVQKEIDTVLPNKAPPTYDTVLQLEYLDMVVNETLRLFPVAMRLERVCKKDVEINGMFIPKGVVVMIPSYVLHHDPKYWTEPEKFLPERFSKKNKDNIDPYIYTPFGSGPRNCIGMRFALVNMKLALVRVLQNFSFKPCKETQIPLKLRFGGLLLTEKPIVLKAESRDETVSGA
notes: recombinant human CYP3A7 Supersomes (Sf9 insect cell microsomes); with human NADPH-cytochrome P450 reductase and human cytochrome b5 (co-expressed)
With B1 the Km [4] was 0.525 µM, the kcat [4] was 0.00247 s⁻¹ and the Km [5] was 0.913 µM. It also gave a kcat [5] of 0.0217 s⁻¹.

— PMC8484451, “Characterization of fluorescent probe substrates to develop an efficient high-throughput assay for neonatal hepatic CYP3A7 inhibition screening” (Scientific Reports, 2021)
